Experiment in all cases: relative viability (nuclei count vs DMSO), 5 days (fraction); higher = more cells survive
Compound in test [1]: NS(=O)(=O)OC[C@@H]1C[C@@H](n2ccc3c(N[C@H]4CCc5ccccc54)ncnc32)C[C@@H]1O [MLN4924] + CC(C)C[C@H](NC(=O)[C@H](Cc1ccccc1)NC(=O)c1cnccn1)B(O)O [Bortezomib] (partner 0.002 µM)
Summed up: (§1)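 Values are medians from duplicate plates. Each reflects relative viability, defined as the nuclei count of treated wells over that of vehicle wells. Lung cancer cell lines in 1536-well plates were pin-tool dosed one day after seeding with one drug alone or with a fixed anchor-drug dose plus five library-drug doses (not always all listed) in √10 steps, then fixed, stained and imaged at 4× after 5 days.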

Compound in test [2]: CC[C@H](C)N1C=C(C2=C(C=C(C=C21)C3=CN=C(C=C3)N4CCNCC4)C(=O)NCC5=C(C=C(NC5=O)C)C)C [GSK126] + CC(C)C[C@H](NC(=O)[C@H](Cc1ccccc1)NC(=O)c1cnccn1)B(O)O [Bortezomib] (partner 0.002 µM)
Summed up: as §1

Compound in test [3]: C1CC(C1)(C(=O)O)C(=O)O.[NH2-].[NH2-].[Pt+2] [Carboplatin] + COc1cccc2cc(-c3nc([C@H]4CC[C@H](C(=O)O)CC4)n4ncnc(N)c34)[nH]c12 [OSI-027] (partner 0.5 µM)
Summed up: as §1

Compound in test [4]: C1CC(C1)(C(=O)O)C(=O)O.[NH2-].[NH2-].[Pt+2] [Carboplatin] + N=C(N)NC(=N)NCCc1ccccc1 [Phenformin] (partner 250 µM)
A digest of the protocol: as §1

As for NCI-H2405, the relative viability stood at 0.935 in test [1] (first compound 0.04 µM); 0.957 in test [1] (first compound 0.1265 µM); 0.639 in test [1] (first compound 0.4 µM); 0.266 in test [1] (first compound 1.265 µM); 0.283 in test [1] (first compound 4 µM); 0.988 in test [2] (first compound 0.08 µM). In addition, the relative viability in test [2] (first compound 0.253 µM) was found to be 0.974; in test [2] (first compound 0.8 µM), 0.985; in test [2] (first compound 2.53 µM), 0.982; in test [2] (first compound 8 µM), 0.975; in test [3] (first compound 0.08 µM), 0.683; in test [3] (first compound 0.253 µM), 0.624. The relative viability in test [3] (first compound 0.8 µM) was found to be 0.624; in test [3] (first compound 2.53 µM), 0.642; in test [3] (first compound 8 µM) it was 0.56; in test [4] (first compound 0.08 µM), 0.455; in test [4] (first compound 0.253 µM), 0.379; in test [4] (first compound 0.8 µM), 0.369. Also, the relative viability came out at 0.38 in test [4] (first compound 2.53 µM) and 0.383 in test [4] (first compound 8 µM).

On to NCI-H3122, for which the relative viability in test [1] (first compound 0.04 µM) came to 1.07; in test [1] (first compound 0.1265 µM), 0.752; in test [1] (first compound 0.4 µM) it was 0.35; in test [1] (first compound 1.265 µM) it was 0.208; in test [1] (first compound 4 µM), 0.146; in test [2] (first compound 0.08 µM), 1.01. The relative viability stood at 1.04 in test [2] (first compound 0.253 µM); 0.994 in test [2] (first compound 0.8 µM); 1.01 in test [2] (first compound 2.53 µM); 1.07 in test [2] (first compound 8 µM); 0.985 in test [3] (first compound 0.08 µM); 1.24 in test [3] (first compound 0.253 µM). The relative viability in test [3] (first compound 0.8 µM) worked out at 0.828; in test [3] (first compound 2.53 µM), 0.732; in test [3] (first compound 8 µM), 0.752; in test [4] (first compound 0.08 µM), 0.4; in test [4] (first compound 0.253 µM), 0.399; in test [4] (first compound 0.8 µM), 0.385. Also, the relative viability in test [4] (first compound 2.53 µM) was found to be 0.37; in test [4] (first compound 8 µM), 0.359.

Consider PC-3 [JPC-3], for which the relative viability amounted to 0.857 in test [1] (first compound 0.04 µM); 0.819 in test [1] (first compound 0.1265 µM); 0.573 in test [1] (first compound 0.4 µM); 0.328 in test [1] (first compound 1.265 µM); 0.282 in test [1] (first compound 4 µM); 0.823 in test [2] (first compound 0.08 µM). Moreover, the relative viability came to 1.01 in test [2] (first compound 0.253 µM); 0.786 in test [2] (first compound 0.8 µM); 0.817 in test [2] (first compound 2.53 µM); 0.856 in test [2] (first compound 8 µM); 0.88 in test [3] (first compound 0.08 µM); 0.821 in test [3] (first compound 0.253 µM). Moreover, the relative viability in test [3] (first compound 0.8 µM) was 0.754; in test [3] (first compound 2.53 µM), 0.729; in test [3] (first compound 8 µM), 0.588; in test [4] (first compound 0.08 µM) it was 0.486; in test [4] (first compound 0.253 µM), 0.461; in test [4] (first compound 0.8 µM), 0.449. The results for the relative viability in test [4] (first compound 2.53 µM) and in test [4] (first compound 8 µM) were 0.473 and 0.456, respectively.

With PC-14, the relative viability in test [1] (first compound 0.04 µM) stood at 0.857; in test [1] (first compound 0.1265 µM), 0.823; in test [1] (first compound 0.4 µM), 0.369; in test [1] (first compound 1.265 µM), 0.172; in test [1] (first compound 4 µM), 0.101; in test [2] (first compound 0.08 µM) it was 0.774. Further, the relative viability turned out to be 0.943 in test [2] (first compound 0.253 µM); 0.895 in test [2] (first compound 0.8 µM); 0.781 in test [2] (first compound 2.53 µM); 0.782 in test [2] (first compound 8 µM); 0.864 in test [3] (first compound 0.08 µM); 0.923 in test [3] (first compound 0.253 µM). In addition, the relative viability was 0.716 in test [3] (first compound 0.8 µM); 0.369 in test [3] (first compound 2.53 µM); 0.133 in test [3] (first compound 8 µM); 0.807 in test [4] (first compound 0.08 µM); 0.592 in test [4] (first compound 0.253 µM); 0.53 in test [4] (first compound 0.8 µM). Also, the relative viability in test [4] (first compound 2.53 µM) was determined as 0.383; in test [4] (first compound 8 µM), 0.274.

Turning to RERF-LC-KJ, the relative viability in test [1] (first compound 0.04 µM) came out at 0.874; in test [1] (first compound 0.1265 µM), 0.828; in test [1] (first compound 0.4 µM), 0.244; in test [1] (first compound 1.265 µM), 0.24; in test [1] (first compound 4 µM), 0.28; in test [2] (first compound 0.08 µM), 1.14. Moreover, the relative viability in test [2] (first compound 0.253 µM) came to 1.23; in test [2] (first compound 0.8 µM), 0.938; in test [2] (first compound 2.53 µM), 1.16; in test [2] (first compound 8 µM), 1.07; in test [3] (first compound 0.08 µM) it was 0.585; in test [3] (first compound 0.253 µM), 0.639. In addition, the relative viability was determined as 0.541 in test [3] (first compound 0.8 µM); 0.464 in test [3] (first compound 2.53 µM); 0.343 in test [3] (first compound 8 µM); 0.45 in test [4] (first compound 0.08 µM); 0.387 in test [4] (first compound 0.253 µM); 0.386 in test [4] (first compound 0.8 µM). Also, the relative viability in test [4] (first compound 2.53 µM) amounted to 0.335; in test [4] (first compound 8 µM), 0.317.

With SK-LU-1, the relative viability in test [1] (first compound 0.04 µM) turned out to be 0.856; in test [1] (first compound 0.1265 µM), 0.866; in test [1] (first compound 0.4 µM), 0.293; in test [1] (first compound 1.265 µM) it was 0.187; in test [1] (first compound 4 µM), 0.28; in test [2] (first compound 0.08 µM), 1.19. For the same cell line, the relative viability in test [2] (first compound 0.253 µM) is 0.95; in test [2] (first compound 0.8 µM) it was 1.19; in test [2] (first compound 2.53 µM), 1.38; in test [2] (first compound 8 µM) it was 1.05; in test [3] (first compound 0.08 µM) it was 0.444; in test [3] (first compound 0.253 µM), 0.387. The relative viability in test [3] (first compound 0.8 µM) was 0.339; in test [3] (first compound 2.53 µM), 0.292; in test [3] (first compound 8 µM), 0.213; in test [4] (first compound 0.08 µM) it was 0.78; in test [4] (first compound 0.253 µM), 0.578; in test [4] (first compound 0.8 µM), 0.44. Also, the relative viability in test [4] (first compound 2.53 µM) amounted to 0.533; in test [4] (first compound 8 µM) it was 0.41.

Consider SW 1573, for which the relative viability in test [1] (first compound 0.04 µM) is 1.03; in test [1] (first compound 0.1265 µM), 0.932; in test [1] (first compound 0.4 µM), 0.249; in test [1] (first compound 1.265 µM), 0.0788; in test [1] (first compound 4 µM) it was 0.0726; in test [2] (first compound 0.08 µM) it was 1.06. Besides, the relative viability came out at 1.1 in test [2] (first compound 0.253 µM); 0.989 in test [2] (first compound 0.8 µM); 1.01 in test [2] (first compound 2.53 µM); 1.26 in test [2] (first compound 8 µM); 0.653 in test [3] (first compound 0.08 µM); 0.694 in test [3] (first compound 0.253 µM). Moreover, the relative viability worked out at 0.67 in test [3] (first compound 0.8 µM); 0.617 in test [3] (first compound 2.53 µM); 0.437 in test [3] (first compound 8 µM); 0.38 in test [4] (first compound 0.08 µM); 0.354 in test [4] (first compound 0.253 µM); 0.414 in test [4] (first compound 0.8 µM). In addition, the figures for the relative viability in test [4] (first compound 2.53 µM) and in test [4] (first compound 8 µM) were 0.359 and 0.265, respectively.

The values are drawn from the supplement of paper PMC10307832.
